Test results: patent US6608082B1, “Treatment of erectile dysfunction using isoquinoline compound melanocortin receptor ligands” (Lion Bioscience AG, priority 1998, dated 2003)
Where two headings read alike, the source gives them in different places.

How the values were obtained:
[1] = target: T1, MCR-4 (Homo sapiens, UniProt P32245); assay: Melanocortin receptor binding assay, competition with 125I-HP 467, HEK 293 cells expressing hMCR-4; conditions: read-out: MC-4 IC50
T1 construct: expressed in transfected cells; host or cells: HEK 293
Procedure, shortened: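 Test compounds compete on intact HEK 293 cells carrying hMCR-1 (2×10^4 per tube) or hMCR-4 (4×10^3 per tube), suspended in PBS, 10% calf serum, 1 mM CaCl2.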

[2] = target: T2, MCR-1 (Homo sapiens, UniProt Q01726); assay: cAMP assay for melanocortin receptors, HEK 293 cells expressing MCR-1; assay type: cell-based; conditions: for EC50: 50% of maximal cAMP production, read-out: MC-1 EC50 (cAMP); for MC-1 Max (pmole) cAMP produced: maximum amount of cAMP
T2 construct: expressed in transfected cells; host or cells: HEK 293
Method: (§1) HEK 293 cells expressing MCR-1, MCR-3, MCR-4 and MCR-5 were used (see Example II). Cells were plated at 20,000 cells per well in a 96-well plate coated with collagen. The next day, cells were pretreated with 75 μl of 0.4 mM 3-isobutyl-1-methylxanthine (IBMX) in low serum medium containing DMEM, 25 mM HEPES, non-essential amino acids, vitamins, 100 units/ml penicillin, 100 μg/ml streptomycin and 0.1% COSMIC CALF SERUM. IBMX is an inhibitor of cAMP phosphodiesterase. The pretreatment was carried out for 10 min at 37° C.
(§2) Following pretreatment, 25 μl of diluted isoquinoline compound was added to the wells, and cells were incubated for 15 min at 37° C. Cells were lysed by adding 25 μl saponin lysis buffer and incubating 2 to 5 min. Plates were covered and stored at −20° C.
(§3) cAMP concentration was determined by ELISA. Briefly, 96 well ELISA plates were coated with goat anti-cAMP antibody in PBS for 12 to 72 hr at 4° C. 50 μl of sample was mixed with 50 μl of cAMP ELISA buffer containing 1% bovine serum albumin, 10% heat-inactivated donor horse serum, 1% normal mouse serum and 0.05% TWEEN-20 in PBS, and the diluted sample was added to the coated ELISA plate. Standards of known concentrations of cAMP were added to separate wells. 25 μl of 16 ng/ml cAMP-conjugated horse radish peroxidase (HRP) (cAMP-HRP) was added to each well, and the plates were […] at room temperature. Plates were washed and the binding of cAMP-HRP was detected with 3,3′,5,5′-tetramethylbenzidine (TMB) and hydrogen peroxide using standard immunoassay procedures.
(§4) Various isoquinoline compounds were tested for their ability to activate MC receptor by measuring cAMP as described in Example III.

[3] = target: T3, MCR-3 (Homo sapiens, UniProt P41968); assay: cAMP assay for melanocortin receptors, HEK 293 cells expressing MCR-3; assay type: cell-based; conditions: read-out: MC-3 EC50 (cAMP)
T3 construct: expressed in transfected cells; host or cells: HEK 293
Method: as §1, §2, §3, §4

[4] = target: T1, MCR-4; assay: cAMP assay for melanocortin receptors, HEK 293 cells expressing MCR-4; assay type: cell-based; conditions: for MC-4 Max (pmole) cAMP produced: maximum amount of cAMP; for EC50: read-out: MC-4 EC50 (cAMP)
Method: as §1, §2, §3, §4

[5] = target: T4, MCR-5 (Homo sapiens, UniProt P33032); assay: cAMP assay for melanocortin receptors, HEK 293 cells expressing MCR-5; assay type: cell-based; conditions: read-out: MC-5 EC50 (cAMP)
T4 construct: expressed in transfected cells; host or cells: HEK 293
Method: as §1, §2, §3, §4

[6] = tested on: arachidonic acid induced dermal inflammation; assay: Arachidonic acid induced dermal inflammation (ear thickness); assay type: in vivo, Female BALB/c mice; conditions: for inflammation in response to arachadonic acid administration: mouse, in vivo; for reduction in the level of arachidonic acid-induced dermal inflammation: intraperitoneally, TRG 2409-2 or TRG 2409-14 100 or 300 μg/mouse, FIG. 5
Method: Female BALB/c mice (17-22 g) were used and administered the test isoquinoline compounds or positive control compounds 30 to 60 min prior to topical application of arachidonic acid. Indomethacin and HP 228 were used as positive controls. Compounds were administered orally (p.o.) or intraperitoneally (i.p.). Initial ear thickness (left and right) was measured using spring loaded micro-calipers. Arachidonic acid was applied to mice anesthetized with a cocktail of ketamine/xylazine (7.0 mg/ml and 0.6 mg/ml, respectively) administered i.p. (300 μl/mouse). Utilizing a micro-pipette, 20 μl of arachidonic acid solution (100 mg/ml ethanol or acetone) was applied to the right ear (10 μl to inner and 10 μl to outer surfaces of […] for a total of 2 mg arachidonic acid per right ear), and 20 μl of vehicle (ethanol or acetone) was applied to the left ear. Mice were returned to their cages to recover. Mice were again anesthetized 50 min after arachidonic acid application and their ears measured.
Dermal inflammation was determined by subtracting the difference of the vehicle treated left ear (L60−L0) from the difference of the arachidonic acid treated right ear (R60−R0). Ear thickness measurements were averaged for each group, and the responses in the vehicle treated control group (Cr; saline or PBS) were subtracted from the response noted in the isoquinoline compound treated group (Tr) to give the relative inflammatory response for each treatment group compared to the control group. The percent inhibition is defined by the equation: % inhibition=(Cr−Tr)/(Cr)×100.

[7] = 100 μg/mouse administered intraperitoneally, FIG. 4
[8] = TRG 2408 and TRG 2409 libraries, inhibition of 125I-HP 467 binding
[9] = competition with 125I-HP 467, HEK 293 cells expressing MCR-4

T1 sequence (P32245 whole entry): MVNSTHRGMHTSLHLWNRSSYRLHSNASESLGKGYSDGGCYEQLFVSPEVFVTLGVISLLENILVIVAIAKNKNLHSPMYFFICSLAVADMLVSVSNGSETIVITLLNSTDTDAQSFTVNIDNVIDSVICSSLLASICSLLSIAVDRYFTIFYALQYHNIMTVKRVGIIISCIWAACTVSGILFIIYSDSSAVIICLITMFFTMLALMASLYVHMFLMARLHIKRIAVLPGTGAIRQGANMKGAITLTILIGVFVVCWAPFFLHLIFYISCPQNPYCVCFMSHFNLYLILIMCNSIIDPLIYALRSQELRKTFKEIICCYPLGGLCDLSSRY
T4 sequence (P33032 whole entry): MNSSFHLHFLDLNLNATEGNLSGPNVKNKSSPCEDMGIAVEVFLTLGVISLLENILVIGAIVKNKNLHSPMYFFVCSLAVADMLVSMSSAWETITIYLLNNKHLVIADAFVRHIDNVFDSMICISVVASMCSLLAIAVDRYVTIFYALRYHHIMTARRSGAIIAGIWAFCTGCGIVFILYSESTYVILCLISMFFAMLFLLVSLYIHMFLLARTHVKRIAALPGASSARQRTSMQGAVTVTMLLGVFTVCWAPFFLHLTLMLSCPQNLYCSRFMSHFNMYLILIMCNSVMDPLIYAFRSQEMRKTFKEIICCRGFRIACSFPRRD
T3 sequence (P41968 whole entry): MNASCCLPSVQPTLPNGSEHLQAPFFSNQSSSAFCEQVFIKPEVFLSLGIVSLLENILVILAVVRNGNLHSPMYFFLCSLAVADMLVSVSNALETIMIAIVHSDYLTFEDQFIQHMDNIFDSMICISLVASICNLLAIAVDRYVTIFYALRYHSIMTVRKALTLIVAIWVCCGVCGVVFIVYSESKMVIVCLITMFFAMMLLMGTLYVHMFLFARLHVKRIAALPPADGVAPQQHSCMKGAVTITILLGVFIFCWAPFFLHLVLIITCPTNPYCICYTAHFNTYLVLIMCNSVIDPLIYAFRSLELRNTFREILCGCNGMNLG
T2 sequence (Q01726 whole entry): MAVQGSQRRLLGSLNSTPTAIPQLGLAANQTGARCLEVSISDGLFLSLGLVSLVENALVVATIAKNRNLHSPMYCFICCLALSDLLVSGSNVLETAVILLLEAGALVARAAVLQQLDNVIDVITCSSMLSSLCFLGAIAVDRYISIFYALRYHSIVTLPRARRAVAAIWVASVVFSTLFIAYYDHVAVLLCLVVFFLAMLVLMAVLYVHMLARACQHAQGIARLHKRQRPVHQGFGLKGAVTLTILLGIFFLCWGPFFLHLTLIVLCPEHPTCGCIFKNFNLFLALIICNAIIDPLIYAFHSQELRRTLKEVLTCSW

Structure (SMILES) | EC50 [2] | MC-1 Max (pmole) cAMP produced [2] | EC50 [3] | EC50 [4] | EC50 [5] | inflammation in response to arachadonic acid administration [6] | also measured
CNC(CN)CCCCN1Cc2ccccc2C(CN)C1c1ccc(Cl)cc1Cl (centres unmarked) [TRG 2407-39] |  |  |  |  |  |  | IC50 ([1]; TRG 2406 and TRG 2407 libraries, inhibition of binding of 125I-HP 467): 0.11 µM
CNC(CN)CCCCN1Cc2ccccc2C(CNC2CCCCC2)C1c1ccc(-c2ccccc2)cc1 (centres unmarked) [TRG 2405-241] | 10.4 µM | 66.67 pmol | > 50 µM | 28.5 µM | > 50 µM | reduced inflammation | MC-4 Max (pmole) cAMP produced [4]: 32.32 pmol; inhibition of arachidonic acid induced dermal inflammation [6, 7]: inhibition of arachidonic acid induced dermal inflammation; inhibition of arachidonic acid induced dermal inflammation ([6]; administered intraperitoneally, TRG 2405-241 300 μg/mouse, HP 228 100 μg/mouse, FIG. 3): comparable to that seen with HP 228; inhibition of arachidonic acid induced dermal inflammation ([6]; administered orally, TRG 2405-241 600 μg/mouse, indomethacin 1 mg/mouse, FIG. 2): comparable to that seen with indomethacin
CCNc1ccc(C2C(CNC3CCCCC3)c3ccccc3CN2CCCCC(CN)NC)cc1 (centres unmarked) [TRG 2408-30] | 2.83 µM | 125.79 pmol |  |  |  |  | IC50 [1, 8]: 45.6 µM
CNC(CN)CN1Cc2ccccc2C(CNC2CCCCC2)C1c1ccc(O)cc1 (centres unmarked) [TRG 2405-156] | 20.6 µM | 16.01 pmol | > 50 µM | > 50 µM | > 50 µM |  | IC50 ([1]; TRG 2405 section, inhibition of binding of 125I-HP 467, HEK 293 cells expressing MCR-4): 20.6 µM
CCNc1ccc(C2C(CNC3CCCCC3)c3ccccc3CN2CCCC(CN)NCCc2ccccc2)cc1 (centres unmarked) [TRG 2408-62] | < 0.1 µM |  |  |  |  |  | IC50 [1, 8]: 2.61 µM
CCCCNc1ccc(C2C(CNCc3ccccc3O)c3ccccc3CN2CCCCC(CN)NC)cc1 (centres unmarked) [TRG 2409-2] | 1.01 µM | 200 pmol |  |  |  | reduced inflammation | IC50 [1, 9]: 10.7 µM; reduction in the level of arachidonic acid-induced dermal inflammation ([6]; HP 228 100 μg/mouse): dose dependent reduction in the level of arachidonic acid-induced dermal inflammation
CCNc1ccc(C2C(CNCc3ccccc3O)c3ccccc3CN2CCCC(CN)NCCc2ccccc2)cc1 (centres unmarked) [TRG 2408-57] | < 0.1 µM |  |  |  |  |  | IC50 [1, 8]: 6.02 µM
CCNc1ccc(C2C(CNC3CCCCC3)c3ccccc3CN2CCCCC(CN)NC)cc1 (centres unmarked) [TRG 2405-239] | 3.67 µM | 20.6 pmol | > 50 µM | > 50 µM | > 50 µM |  | 
CNC(CN)CCCCN1Cc2ccccc2C(CNC2CCCCC2)C1c1ccc(Br)cc1 (centres unmarked) [TRG 2405-242] | 13.1 µM | 55.89 pmol | > 50 µM | > 50 µM | > 50 µM |  | 
CNC(CN)CCCCN1Cc2ccccc2C(CNC2CCCCC2)C1c1ccc(Cl)cc1Cl (centres unmarked) [TRG 2405-190] | 8.52 µM | 33.56 pmol |  | 46.3 µM |  | reduced inflammation | MC-4 Max (pmole) cAMP produced [4]: 100.48 pmol; inhibition of arachidonic acid induced dermal inflammation [6, 7]: inhibition of arachidonic acid induced dermal inflammation
CCCOc1ccc(C2C(CNC3CCCCC3)c3ccccc3CN2CCCCC(CN)NC)cc1 (centres unmarked) [TRG 2405-253] | 8.5 µM | 22.55 pmol | > 50 µM | 16.6 µM | > 50 µM | reduced inflammation | MC-4 Max (pmole) cAMP produced [4]: 69.11 pmol; inhibition of arachidonic acid induced dermal inflammation [6, 7]: inhibition of arachidonic acid induced dermal inflammation
CNC(CN)CCCCN1Cc2ccccc2C(CNC2CCCCC2)C1c1ccc(O)cc1 (centres unmarked) [TRG 2405-246] | 23.7 µM | 12.48 pmol | > 50 µM | > 50 µM | > 50 µM |  | 
CNC(CN)CCCCN1Cc2ccccc2C(CNC2CCCCC2)C1c1ccc(Oc2ccccc2)cc1 (centres unmarked) [TRG 2405-252] | 16 µM | 33.07 pmol | > 50 µM | 18.5 µM | > 50 µM | reduced inflammation | MC-4 Max (pmole) cAMP produced [4]: 39.24 pmol; inhibition of arachidonic acid induced dermal inflammation [6, 7]: inhibition of arachidonic acid induced dermal inflammation
CNC(CN)CCCCN1Cc2ccccc2C(CNC2CCCCC2)C1c1ccc(C(F)(F)F)cc1 (centres unmarked) [TRG 2405-238] | 19.9 µM | 29.82 pmol | > 50 µM | > 50 µM | > 50 µM |  | 
CNC(CN)CCCCN1Cc2ccccc2C(CNC2CCCCC2)C1c1ccc2cccc(O)c2n1 (centres unmarked) [TRG 2405-262] | > 50 µM |  | > 50 µM | > 50 µM | > 50 µM |  | 
CCCCNc1ccc(C2C(CNC3CCCCC3)c3ccccc3CN2CCCCC(CN)NC)cc1 (centres unmarked) [TRG 2409-14] | 0.87 µM | 170 pmol |  |  |  | reduced inflammation | IC50 [1, 9]: 15.1 µM; reduction in the level of arachidonic acid-induced dermal inflammation ([6]; HP 228 100 μg/mouse): decreased dermal inflammation to a lesser extent than TRG 2409-2
CNC(CN)CCCCN1Cc2ccccc2C(CNC2CCCCC2)C1c1ccc(N(C)C)cc1 (centres unmarked) [TRG 2405-235] | 29.9 µM | 17.07 pmol |  | > 50 µM |  |  | 
